Experimental data as given in US10456394B2, “Tetrahydroquinoline substituted hydroxamic acids as selective histone deacetylase 6 inhibitors” (THE BOARD OF TRUSTEES OF THE UNIVERSITY OF ILLINOIS, priority 2016, dated 2019).

Experiments:
traumatic brain injury = conditions: following traumatic brain injury in rats; cited from earlier work
Human HDAC1 = Human HDAC1 (Homo sapiens (Human), UniProt Q13547); test: HDAC enzyme activity inhibition assay, HDAC1; format: biochemical; conditions: Table 1; mean of two experiments ± standard deviation; 10-point assay from 30 μM, 3-fold serial dilution
Human HDAC6 = Human HDAC6 (Homo sapiens (Human), UniProt Q9UBN7); test: HDAC enzyme activity inhibition assay, HDAC6; format: biochemical; conditions: Table 1; for IC50: mean of two experiments ± standard deviation, 10-point assay from 30 μM, 3-fold serial dilution; for Selectivity HDAC1/HDAC6: ratio of IC50 values
HDAC2 = HDAC2 (Homo sapiens (Human), UniProt Q92769); test: HDAC enzyme activity inhibition assay, HDAC2; format: biochemical; conditions: Table 2; mean of two experiments
HDAC3/NcoR2 complex = HDAC3/NcoR2 complex (Homo sapiens (Human), UniProt O15379); test: HDAC enzyme activity inhibition assay, HDAC3; format: biochemical; conditions: Table 2; mean of two experiments
HDAC4 = HDAC4 (Homo sapiens (Human), UniProt P56524); test: HDAC enzyme activity inhibition assay, HDAC4; format: biochemical; conditions: Table 2; mean of two experiments
HDAC5 = HDAC5 (Homo sapiens (Human), UniProt Q9UQL6); test: HDAC enzyme activity inhibition assay, HDAC5; format: biochemical; conditions: Table 2; mean of two experiments
HDAC8 = HDAC8 (Homo sapiens (Human), UniProt Q9BY41); test: HDAC enzyme activity inhibition assay, HDAC8; format: biochemical
HDAC9 = HDAC9 (Homo sapiens (Human), UniProt Q9UKV0); test: HDAC enzyme activity inhibition assay, HDAC9; format: biochemical; conditions: Table 2; mean of two experiments
HDAC10 = HDAC10 (Homo sapiens (Human), UniProt Q969S8); test: HDAC enzyme activity inhibition assay, HDAC10; format: biochemical; conditions: Table 2; mean of two experiments
HDAC11 = HDAC11 (Homo sapiens (Human), UniProt Q96DB2); test: HDAC enzyme activity inhibition assay, HDAC11; format: biochemical; conditions: Table 2; mean of two experiments
cardiac fibroblasts = test: Tubulin acetylation in adult rat cardiac fibroblasts; format: cell-based; conditions: in comparison to the DMSO control (FIG. 2)
Description: The ability of the inhibitor to induce tubulin acetylation in cardiac fibroblasts was also determined and western blot is shown below.

GBM6 cells = test: Growth inhibition of glioblastoma cell line GBM6; format: cell-based; conditions: FIG. 4
HDAC7 = HDAC7 (Homo sapiens (Human), UniProt Q8WUI4); test: biochemical
[1] = tested on: symptomatic mutant HSPB1 mice; conditions: cited from earlier work
mice with colitis = conditions: treatment begun once colitis had developed; cited from earlier work

Chain of Human HDAC1 (Q13547 whole entry): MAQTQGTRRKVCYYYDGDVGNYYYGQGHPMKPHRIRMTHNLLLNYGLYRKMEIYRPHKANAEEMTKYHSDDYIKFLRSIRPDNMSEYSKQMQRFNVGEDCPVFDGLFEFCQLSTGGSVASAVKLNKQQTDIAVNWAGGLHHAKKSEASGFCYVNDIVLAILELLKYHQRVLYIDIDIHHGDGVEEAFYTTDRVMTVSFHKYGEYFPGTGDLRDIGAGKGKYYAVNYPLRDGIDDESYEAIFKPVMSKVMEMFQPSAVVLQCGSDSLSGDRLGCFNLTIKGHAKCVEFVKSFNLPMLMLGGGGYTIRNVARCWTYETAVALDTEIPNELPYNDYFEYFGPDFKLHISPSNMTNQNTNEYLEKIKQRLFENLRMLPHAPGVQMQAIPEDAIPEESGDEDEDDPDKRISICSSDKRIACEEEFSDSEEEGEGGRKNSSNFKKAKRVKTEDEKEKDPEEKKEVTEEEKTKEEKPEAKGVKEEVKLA
Chain of Human HDAC6 (Q9UBN7 whole entry): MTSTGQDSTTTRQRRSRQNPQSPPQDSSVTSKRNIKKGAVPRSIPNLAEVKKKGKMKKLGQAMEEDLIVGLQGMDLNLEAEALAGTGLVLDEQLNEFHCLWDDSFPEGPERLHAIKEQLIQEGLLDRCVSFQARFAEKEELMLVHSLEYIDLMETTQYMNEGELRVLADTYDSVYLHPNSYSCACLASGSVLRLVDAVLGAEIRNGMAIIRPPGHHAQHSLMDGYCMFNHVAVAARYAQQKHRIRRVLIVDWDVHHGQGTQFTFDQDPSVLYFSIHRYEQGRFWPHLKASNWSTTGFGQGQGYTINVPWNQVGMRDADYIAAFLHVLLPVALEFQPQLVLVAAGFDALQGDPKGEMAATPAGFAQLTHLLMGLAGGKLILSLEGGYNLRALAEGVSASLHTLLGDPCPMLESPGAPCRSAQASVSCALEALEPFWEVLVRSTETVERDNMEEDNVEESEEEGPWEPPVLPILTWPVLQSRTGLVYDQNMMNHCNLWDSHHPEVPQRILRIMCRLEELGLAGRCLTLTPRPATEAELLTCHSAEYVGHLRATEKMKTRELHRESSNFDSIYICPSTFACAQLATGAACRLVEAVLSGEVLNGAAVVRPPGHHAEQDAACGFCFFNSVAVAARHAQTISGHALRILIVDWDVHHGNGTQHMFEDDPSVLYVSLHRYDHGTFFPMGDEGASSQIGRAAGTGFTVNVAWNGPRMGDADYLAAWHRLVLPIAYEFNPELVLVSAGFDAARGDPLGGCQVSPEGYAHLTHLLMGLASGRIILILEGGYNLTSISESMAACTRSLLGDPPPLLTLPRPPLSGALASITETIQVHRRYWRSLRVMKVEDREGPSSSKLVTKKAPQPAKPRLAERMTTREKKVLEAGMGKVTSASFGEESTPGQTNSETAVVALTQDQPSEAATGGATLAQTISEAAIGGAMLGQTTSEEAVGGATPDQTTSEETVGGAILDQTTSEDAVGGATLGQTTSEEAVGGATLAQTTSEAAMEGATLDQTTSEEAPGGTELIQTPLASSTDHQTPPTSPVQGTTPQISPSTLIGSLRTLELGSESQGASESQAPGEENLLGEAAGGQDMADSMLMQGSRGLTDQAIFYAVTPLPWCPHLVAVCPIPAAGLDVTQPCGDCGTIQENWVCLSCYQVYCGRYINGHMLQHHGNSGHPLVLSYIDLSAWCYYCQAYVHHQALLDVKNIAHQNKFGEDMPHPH
Chain of HDAC8 (Q9BY41 whole entry): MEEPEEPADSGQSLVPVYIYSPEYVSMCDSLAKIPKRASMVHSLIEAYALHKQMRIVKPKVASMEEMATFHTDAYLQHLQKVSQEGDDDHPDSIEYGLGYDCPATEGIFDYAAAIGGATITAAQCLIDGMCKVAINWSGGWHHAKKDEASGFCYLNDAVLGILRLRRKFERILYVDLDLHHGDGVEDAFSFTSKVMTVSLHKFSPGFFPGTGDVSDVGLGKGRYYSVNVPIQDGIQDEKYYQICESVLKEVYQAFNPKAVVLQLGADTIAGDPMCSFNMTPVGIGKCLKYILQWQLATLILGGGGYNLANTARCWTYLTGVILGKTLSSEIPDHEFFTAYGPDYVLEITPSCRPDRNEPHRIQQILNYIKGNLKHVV
Chain of HDAC4 (P56524 whole entry): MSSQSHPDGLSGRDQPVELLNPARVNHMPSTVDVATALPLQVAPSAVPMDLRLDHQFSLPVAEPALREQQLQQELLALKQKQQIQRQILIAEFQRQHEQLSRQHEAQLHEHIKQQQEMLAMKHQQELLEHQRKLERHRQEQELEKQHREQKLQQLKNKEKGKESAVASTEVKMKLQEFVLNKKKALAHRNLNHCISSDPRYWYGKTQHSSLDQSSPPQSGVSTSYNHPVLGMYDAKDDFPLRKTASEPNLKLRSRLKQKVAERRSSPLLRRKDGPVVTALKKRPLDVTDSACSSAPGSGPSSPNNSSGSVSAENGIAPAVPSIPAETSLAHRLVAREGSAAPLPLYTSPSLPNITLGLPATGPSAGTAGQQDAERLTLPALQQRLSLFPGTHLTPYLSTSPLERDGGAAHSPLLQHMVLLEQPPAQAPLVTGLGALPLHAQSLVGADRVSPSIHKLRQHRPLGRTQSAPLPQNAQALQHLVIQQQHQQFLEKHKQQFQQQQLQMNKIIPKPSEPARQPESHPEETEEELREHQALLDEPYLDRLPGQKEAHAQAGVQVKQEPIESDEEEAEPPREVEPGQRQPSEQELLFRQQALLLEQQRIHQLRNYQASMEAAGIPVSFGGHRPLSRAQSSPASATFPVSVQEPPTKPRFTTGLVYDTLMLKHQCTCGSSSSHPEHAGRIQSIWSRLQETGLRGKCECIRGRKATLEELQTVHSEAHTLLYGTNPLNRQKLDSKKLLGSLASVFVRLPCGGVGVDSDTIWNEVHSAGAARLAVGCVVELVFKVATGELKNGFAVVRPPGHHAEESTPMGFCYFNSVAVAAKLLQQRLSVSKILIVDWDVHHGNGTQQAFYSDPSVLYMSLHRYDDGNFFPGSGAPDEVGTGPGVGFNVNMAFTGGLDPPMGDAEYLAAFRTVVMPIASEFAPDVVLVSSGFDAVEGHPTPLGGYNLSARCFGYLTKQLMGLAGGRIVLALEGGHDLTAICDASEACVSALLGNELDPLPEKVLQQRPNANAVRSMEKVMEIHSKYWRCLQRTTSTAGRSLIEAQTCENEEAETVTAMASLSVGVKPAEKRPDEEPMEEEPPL
Chain of HDAC10 (Q969S8 whole entry): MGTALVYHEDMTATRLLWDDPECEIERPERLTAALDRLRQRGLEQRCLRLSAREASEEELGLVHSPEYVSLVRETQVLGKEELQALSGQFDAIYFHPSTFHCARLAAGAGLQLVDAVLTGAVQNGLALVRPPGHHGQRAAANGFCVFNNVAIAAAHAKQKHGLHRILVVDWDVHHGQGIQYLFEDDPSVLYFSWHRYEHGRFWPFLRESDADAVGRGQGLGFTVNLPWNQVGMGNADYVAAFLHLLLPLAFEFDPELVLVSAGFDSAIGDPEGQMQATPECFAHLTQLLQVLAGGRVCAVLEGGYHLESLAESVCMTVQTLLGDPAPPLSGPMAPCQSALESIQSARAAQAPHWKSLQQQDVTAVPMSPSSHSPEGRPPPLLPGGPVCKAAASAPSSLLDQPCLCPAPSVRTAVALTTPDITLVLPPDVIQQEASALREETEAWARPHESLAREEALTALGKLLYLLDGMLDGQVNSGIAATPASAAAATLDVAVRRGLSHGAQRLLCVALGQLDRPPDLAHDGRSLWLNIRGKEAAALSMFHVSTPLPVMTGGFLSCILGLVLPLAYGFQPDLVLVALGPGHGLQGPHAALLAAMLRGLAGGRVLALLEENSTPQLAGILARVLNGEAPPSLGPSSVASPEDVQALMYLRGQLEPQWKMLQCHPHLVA
Chain of HDAC5 (Q9UQL6 whole entry): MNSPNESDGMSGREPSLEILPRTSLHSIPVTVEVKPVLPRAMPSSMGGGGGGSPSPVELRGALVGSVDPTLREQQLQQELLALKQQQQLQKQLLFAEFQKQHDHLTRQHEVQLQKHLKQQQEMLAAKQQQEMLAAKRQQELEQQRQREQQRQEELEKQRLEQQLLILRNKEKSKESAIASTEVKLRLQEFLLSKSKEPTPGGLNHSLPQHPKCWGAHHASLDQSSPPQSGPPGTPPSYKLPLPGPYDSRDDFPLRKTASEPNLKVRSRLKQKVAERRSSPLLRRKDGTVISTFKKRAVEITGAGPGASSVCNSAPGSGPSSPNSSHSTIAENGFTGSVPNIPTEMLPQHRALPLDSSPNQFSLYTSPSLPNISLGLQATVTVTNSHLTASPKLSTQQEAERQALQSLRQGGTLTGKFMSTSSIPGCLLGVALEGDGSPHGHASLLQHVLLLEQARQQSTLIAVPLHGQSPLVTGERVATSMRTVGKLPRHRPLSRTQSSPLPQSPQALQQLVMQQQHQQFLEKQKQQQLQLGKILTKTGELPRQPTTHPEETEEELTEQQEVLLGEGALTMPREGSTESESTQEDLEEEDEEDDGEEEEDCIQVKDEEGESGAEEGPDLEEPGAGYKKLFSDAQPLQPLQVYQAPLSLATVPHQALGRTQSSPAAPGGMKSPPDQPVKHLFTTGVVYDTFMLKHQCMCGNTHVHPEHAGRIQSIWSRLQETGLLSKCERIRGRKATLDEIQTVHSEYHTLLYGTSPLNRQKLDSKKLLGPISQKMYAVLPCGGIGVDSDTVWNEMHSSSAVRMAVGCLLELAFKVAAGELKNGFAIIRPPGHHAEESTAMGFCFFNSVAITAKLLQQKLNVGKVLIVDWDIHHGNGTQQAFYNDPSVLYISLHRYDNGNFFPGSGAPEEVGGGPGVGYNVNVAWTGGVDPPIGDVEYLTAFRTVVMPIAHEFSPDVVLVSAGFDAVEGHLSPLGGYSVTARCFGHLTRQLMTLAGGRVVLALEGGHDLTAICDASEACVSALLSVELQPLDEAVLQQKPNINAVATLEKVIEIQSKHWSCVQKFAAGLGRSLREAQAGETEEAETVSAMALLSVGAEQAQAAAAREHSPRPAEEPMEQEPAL

Row | IC50 (Human HDAC1) [nM] | IC50 (Human HDAC6) [nM] | Selectivity HDAC1/HDAC6 (Human HDAC6) | SMILES | further results
1 | – | – | – | CN(C)c1ccc(C(=O)NCCCCCNC(=O)CS)cc1 [DMA-PB, 4-dimethylamino-N-[5-(2-mercaptoacetylamino)pentyl]benzamide] | histone H3 acetylation and microglia inflammatory response (traumatic brain injury): increase histone H3 acetylation and reduce microglia inflammatory response
2 | 11100 | 14.6 | 760 | O=C(NO)c1ccc(CN2CCCc3ccccc32)cc1 [Example 1, 4-((3,4-dihydroquinolin-1(2H)-yl)methyl)-N-hydroxybenzamide] | –
3 | – | – | – | O=C(NO)c1ccc(CN2CCCc3cc(Cl)ccc32)cc1 [Example 2, 4-((6-chloro-3,4-dihydroquinolin-1(2H)-yl)methyl)-N-hydroxybenzamide] | IC50 (HDAC2): > 30000 nM; IC50 (HDAC3/NcoR2 complex): > 30000 nM; IC50 (HDAC4): 11000 nM; IC50 (HDAC5): 4550 nM; IC50 (HDAC8): 3340 nM; IC50 (HDAC9): 3460 nM; IC50 (HDAC10): > 30000 nM; IC50 (HDAC11): 746 nM; tubulin acetylation (cardiac fibroblasts): robust tubulin acetylation; growth of glioblastoma cell line (GBM6) (GBM6 cells): inhibit the growth; IC50 (HDAC7): 4060 nM
4 | 21200 ± 1150 | 12.4 ± 5.5 | 1706 | O=C(NO)c1ccc(CN2CCCc3cc(Cl)ccc32)c(F)c1 [Example 3, 4-((6-chloro-3,4-dihydroquinolin-1(2H)-yl)methyl)-3-fluoro-N-hydroxybenzamide] | –
5 | 8430 ± 30 | 382 ± 20.5 | 22 | CC(c1ccc(C(=O)NO)cc1)N1CCCc2cc(Cl)ccc21 (centres unmarked) [Example 4, 4-(1-(6-chloro-3,4-dihydroquinolin-1(2H)-yl)ethyl)-N-hydroxybenzamide] | –
6 | 1865 ± 5 | 3.43 ± 0.27 | 544 | O=C(NO)c1ccc(CN2CCCc3cc(F)c(Cl)cc32)cc1 [Example 7, 4-((7-chloro-6-fluoro-3,4-dihydroquinolin-1(2H)-yl)methyl)-N-hydroxybenzamide] | –
7 | 3220 ± 85 | 4.8 ± 0.78 | 670 | O=C(NO)c1ccc(CN2CCCc3cc(Cl)c(F)cc32)cc1 [Example 8, 4-((6-chloro-7-fluoro-3,4-dihydroquinolin-1(2H)-yl)methyl)-N-hydroxybenzamide] | –
8 | 14100 ± 1900 | 161 ± 3 | 88 | CC1(C)CCc2cc(F)ccc2N1Cc1ccc(C(=O)NO)cc1 [Example 10, 4-((6-fluoro-2,2-dimethyl-3,4-dihydroquinolin-1(2H)-yl)methyl)-N-hydroxybenzamide] | –
9 | 21100 ± 800 | 45.1 ± 0.05 | 468 | CC1(C)CCN(Cc2ccc(C(=O)NO)cc2)c2ccc(F)cc21 [Example 13, 4-((6-fluoro-4,4-dimethyl-3,4-dihydroquinolin-1(2H)-yl)methyl)-N-hydroxybenzamide] | –
10 | 6690 ± 270 | 39.3 ± 0.3 | 170 | O=C(NO)c1ccc(CN2CCN(CC3CC3)c3ccccc32)cc1 [Example 15, 4-((4-(cyclopropylmethyl)-3,4-dihydroquinoxalin-1(2H)-yl)methyl)-N-hydroxybenzamide] | –
11 | 2600 ± 30 | 2 ± 0.1 | 1300 | O=C(NO)c1ccc(CN2CC[S+]([O-])c3ccccc32)cc1 (centres unmarked) [Example 17, N-hydroxy-4-((1-oxido-2,3-dihydro-4H-benzo[b][1,4]thiazin-4-yl)methyl)benzamide] | –
12 | 22000 ± 1550 | 33.6 ± 1.9 | 653 | CC(C)(C)OC(=O)N1CC(=O)N(Cc2ccc(C(=O)NO)cc2)c2ccccc21 [Example 18, tert-butyl 4-(4-(hydroxycarbamoyl)benzyl)-3-oxo-3,4-dihydroquinoxaline-1(2H)-carboxylate] | –
13 | – | – | – | CN1CCc2c(c3ccccc3n2Cc2ccc(C(=O)NO)cc2)C1 [Tubastatin A] | axonal transport defects and CMT phenotype [1]: corrects the axonal transport defects induced by HSPB1 mutations and rescues the CMT phenotype
14 | – | – | – | O=C(CCCCCCC(=O)Nc1ccc([C@H]2O[C@@H](CSc3nc(-c4ccccc4)c(-c4ccccc4)o3)C[C@@H](c3ccc(CO)cc3)O2)cc1)NO [tubacin] | rescue of mice with colitis (mice with colitis): able to rescue mice

Row | SMILES | IC50 (Human HDAC1) [nM] | IC50 (Human HDAC6) [nM] | Selectivity HDAC1/HDAC6 (Human HDAC6) | further results
15 | O=C(NO)c1ccc(CN2CCCc3cc(F)ccc32)cc1 [Example 5, 4-((6-fluoro-3,4-dihydroquinolin-1(2H)-yl)methyl)-N-hydroxybenzamide] | 5235 ± 45 | 5.05 ± 0.23 | 1037 | –
16 | O=C(NO)c1ccc(CN2CCCc3cc(Cl)c(Cl)cc32)cc1 [Example 6, 4-((6,7-dichloro-3,4-dihydroquinolin-1(2H)-yl)methyl)-N-hydroxybenzamide] | 2620 ± 115 | 3.59 ± 0.1 | 728 | –
17 | CC1(C)CCc2cc(Cl)ccc2N1Cc1ccc(C(=O)NO)cc1 [Example 9, 4-((6-chloro-2,2-dimethyl-3,4-dihydroquinolin-1(2H)-yl)methyl)-N-hydroxybenzamide] | 19600 ± 2450 | 328 ± 15.5 | 60 | –
18 | CC1(C)CC(=O)N(Cc2ccc(C(=O)NO)cc2)c2ccc(Cl)cc21 [Example 11, 4-((6-chloro-4,4-dimethyl-2-oxo-3,4-dihydroquinolin-1(2H)-yl)methyl)-N-hydroxybenzamide] | 6500 ± 230 | 28.9 ± 1.1 | 225 | –
19 | CC1(C)CCN(Cc2ccc(C(=O)NO)cc2)c2ccc(Cl)cc21 [Example 12, 4-((6-chloro-4,4-dimethyl-3,4-dihydroquinolin-1(2H)-yl)methyl)-N-hydroxybenzamide] | 19500 ± 700 | 37.8 ± 4.8 | 516 | –
20 | O=C(NO)c1ccc(CN2CCNc3ccccc32)cc1 [Example 14, 4-((3,4-dihydroquinoxalin-1(2H)-yl)methyl)-N-hydroxybenzamide] | 8750 ± 1070 | 2.9 ± 0.4 | 3017 | –
21 | O=C(NO)c1ccc(CN2CCSc3ccccc32)cc1 [Example 16, 4-((2,3-dihydro-4H-benzo[b][1,4]thiazin-4-yl)methyl)-N-hydroxybenzamide] | 7935 ± 25 | 6.1 ± 0.1 | 1300 | –
22 | O=C(NO)c1ccc(Cn2c(=O)cnc3ccccc32)cc1 [Example 19, N-hydroxy-4-((2-oxoquinoxalin-1(2H)-yl)methyl)benzamide] | 1045 ± 5 | 1.2 ± 0.3 | 870 | –
